Target: human PSMA (Homo sapiens (Human), UniProt Q04609)
Assay: Enzymatic assay for in vitro evaluation of PSMA inhibitors (fluorescent assay of PSMA activity, NAAG substrate, OPA detection of glutamate)
Assay type: biochemical

human PSMA, sequence (Q04609 whole entry): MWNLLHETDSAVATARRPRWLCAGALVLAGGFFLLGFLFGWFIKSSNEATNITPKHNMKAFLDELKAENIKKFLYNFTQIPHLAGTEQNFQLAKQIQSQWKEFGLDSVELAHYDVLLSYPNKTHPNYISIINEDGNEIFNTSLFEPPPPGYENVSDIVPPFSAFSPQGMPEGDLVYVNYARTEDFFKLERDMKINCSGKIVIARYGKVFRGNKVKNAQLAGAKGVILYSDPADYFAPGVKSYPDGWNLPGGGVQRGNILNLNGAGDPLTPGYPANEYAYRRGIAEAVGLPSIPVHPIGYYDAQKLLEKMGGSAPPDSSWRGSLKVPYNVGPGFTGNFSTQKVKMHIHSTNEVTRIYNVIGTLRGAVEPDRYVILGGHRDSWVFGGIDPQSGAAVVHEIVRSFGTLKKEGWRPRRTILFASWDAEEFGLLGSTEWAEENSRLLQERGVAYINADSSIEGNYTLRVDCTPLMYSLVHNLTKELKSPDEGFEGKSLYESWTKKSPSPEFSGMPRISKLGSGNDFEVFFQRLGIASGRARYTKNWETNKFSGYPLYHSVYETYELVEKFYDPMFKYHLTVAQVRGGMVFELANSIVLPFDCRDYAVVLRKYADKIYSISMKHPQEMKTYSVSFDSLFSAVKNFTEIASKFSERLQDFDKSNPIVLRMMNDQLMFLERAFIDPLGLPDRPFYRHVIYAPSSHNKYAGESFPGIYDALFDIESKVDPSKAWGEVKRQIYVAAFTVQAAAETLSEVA

SMILES: O=C(O)CC[C@@H](C(=O)O)N1C(=O)N([C@@H](CCCCNC(=O)OCc2ccccc2)C(=O)O)C(=O)C2(CCC2)C1=O [P106, (2S)-2-(8-((S)-5-(Benzyloxycarbonylamino)-1-carboxypentyl)-5,7,9-trioxo-6,8-diazaspiro[3.5]nonan-6-yl)pentanedioic Acid]
- PSMA Blkg % (10 μM) (compound at 10 μM): 67%

SMILES: CN(C(=O)N[C@@H](CCC(=O)O)C(=O)O)[C@@H](CCCCNC(=O)c1ccc(N=[N+]=[N-])cc1)C(=O)O [P059, (S)-2-(3-((S)-5-(4-Azidobenzamido)-1-carboxypentyl)-3-methylureido)pentanedioic Acid]
- Ki: 12.5 nM
- PSMA Blkg % (10 μM) (compound at 10 μM): 99%

SMILES: O=C(O)CC[C@H](NC(=O)N[C@@H](CCCCNc1nc(-c2cccc([N+](=O)[O-])c2)cs1)C(=O)O)C(=O)O [P233, (S)-2-(3-((S)-1-Carboxy-5-(4-(3-nitrophenyl)thiazol-2-ylamino)pentyl)ureido)pentanedioic Acid]
- PSMA Blkg % (1.0 μM): 96%

SMILES: O=C(O)CC[C@H](NC(=O)N[C@@H](CCCCNc1cc(OCCOCCOCCn2cc(CCCF)nn2)ccc1[N+](=O)[O-])C(=O)O)C(=O)O [P251, (S)-2-(3-((S)-1-Carboxy-5-((5-(2-(2-(2-(4-(3-fluoropropyl)-1H-1,2,3-triazol-1-yl)ethoxy)ethoxy)ethoxy)-2-nitrophenyl)amino)pentyl)ureido)pentanedioic Acid]
- Ki: 0.34 nM
- PSMA Blkg % (1.0 μM): 100%

SMILES: O=C(O)CC[C@H](NC(=O)N[C@@H](CCCCNC(=O)c1cc(C(=O)N[C@@H](CCC(=O)O)C(=O)O)cc(-n2cc(CCCF)nn2)c1)C(=O)O)C(=O)O [P268, (S)-2-(3-((S)-1-Carboxy-5-(3-(((S)-1,3-dicarboxypropyl)carbamoyl)-5-(4-(3-fluoropropyl)-1H-1,2,3-triazol-1-yl)benzamido)pentyl)ureido)pentanedioic Acid]
- PSMA Blkg % (1.0 μM): 68%

SMILES: O=C(O)CC[C@@H](C(=O)O)N(O)S(=O)(=O)NC(=O)OCc1ccccc1 [P179, (S)-2-((N-((Benzyloxy)carbonyl)sulfamoyl)(hydroxy)amino)pentanedioic Acid]
- PSMA Blkg % (10 μM) (compound at 10 μM): 4%

SMILES: O=C(O)CC[C@H](NC(=O)C[C@@H](NC(=O)Cc1ccc(F)cc1)C(=O)O)C(=O)O [P210, (S)-2-((R)-3-Carboxy-3-(2-(4-fluorophenyl)acetamido)propanamido)pentanedioic Acid]
- PSMA Blkg % (10 μM): 16%

SMILES: O=C(O)CC[C@H](NC(=O)N[C@@H](CCCCNc1nc(-c2ccc(F)cc2)cs1)C(=O)O)C(=O)O [P232, (S)-2-(3-((S)-1-Carboxy-5-(4-(4-fluorophenyl)thiazol-2-ylamino)pentyl)ureido)pentanedioic Acid]
- PSMA Blkg % (1.0 μM): 96%

SMILES: O=C(O)CC[C@H](NC(=O)N[C@@H](CCCCNC(=O)CC(CC(=O)NCCCC[C@H](NC(=O)N[C@@H](CCC(=O)O)C(=O)O)C(=O)O)NC(=O)Cn1cc(CCCF)nn1)C(=O)O)C(=O)O [P276, (3S,7S,23S,27S)-15-(2-(4-(3-Fluoropropyl)-1H-1,2,3-triazol-1-yl)acetamido)-5,13,17,25-tetraoxo-4,6,12,18,24,26-hexaazanonacosane-1,3,7,23,27,29-hexacarboxylic Acid]
- Ki: 1.3 nM

SMILES: CCC1(CC)C(=O)N([C@@H](CCCCNC(=S)Nc2ccc(-n3cc(CCCF)nn3)cc2)C(=O)O)C(=O)N([C@@H](CCC(=O)O)C(=O)O)C1=O [P130, (S)-2-(3-((S)-1-Carboxy-5-(3-(4-(4-(3-fluoropropyl)-1H-1,2,3-triazol-1-yl)phenyl)thioureido)pentyl)-5,5-diethyl-2,4,6-trioxotetrahydropyrimidin-1 (2H)-yl)pentanedioic Acid]
- PSMA Blkg % (10 μM) (compound at 10 μM): 10%

SMILES: O=C(O)CC[C@H](NC(=O)N[C@@H](CCCCNC(=O)c1ccc(-n2cc(CCCF)nn2)cc1)C(=O)O)C(=O)O [P054]
- Ki: 1.6 nM
- PSMA Blkg % (10 μM) (compound at 10 μM): 100%

Reference: patent publication US10894807B2 (Siemens Medical Solutions USA, Inc., priority 2011, dated 2021)
